Data as given in patent publication US7271165B2, “Rifamycin analogs and uses thereof” (priority 2003, dated 2007).
Converted amounts (≈) assume the structure as drawn.

Legend:
[1] = test system: E. faecalis; test: MIC assay, E. faecalis; format: cell-based, Enterococcus faecalis
[2] = test system: H. flu; format: cell-based, H. influenza; settings: H. flu
[3] = test system: S. pneumo.; test: MIC assay, S. pneumo.; format: cell-based, Streptococcus pneumoniae
[4] = test system: S. aureus; test: MIC assay, S. aureus; format: cell-based, Staphylococcus aureus
[5] = test system: E coli; test: MIC assay, E coli; format: cell-based

| SMILES | MIC (μg/mL) E. faecalis [1] [µg/mL] | MIC (μg/mL) H. flu [2] [µg/mL] | MIC (μg/mL) S. pneumo. [3] [µg/mL] | MIC (μg/mL) S. aureus [4] [µg/mL] | MIC (μg/mL) E coli [5] [µg/mL] |
| --- | --- | --- | --- | --- | --- |
| CCC1CN(c2cc(O)c3nc4c5c6c7c(C)c(O)c5c(=O)c(c-4oc3c2)NC(=O)C(C)=CC=CC(C)C(O)C(C)C(O)C(C)C(O)C(C)C(OC)C=COC(C)(O7)C6=O)CC(CC)N1 (stereo not drawn) [Compound 88] | 0.12 (≈ 0.133 µM) | 0.25 (≈ 0.278 µM) | 0.0005 (≈ 0.000556 µM) | 0.03 (≈ 0.0334 µM) | 4 (≈ 4.45 µM) |
| COCCN1CCN(c2cc(O)c3nc4c5c6c7c(C)c(O)c5c(=O)c(c-4oc3c2)NC(=O)C(C)=CC=CC(C)C(O)C(C)C(O)C(C)C(O)C(C)C(OC)C=COC(C)(O7)C6=O)CC1 (stereo not drawn) [Compound 89] | 0.12 (≈ 0.133 µM) | 0.25 (≈ 0.277 µM) | 0.00025 (≈ 0.000277 µM) | 0.004 (≈ 0.00444 µM) | 8 (≈ 8.88 µM) |
| CCC1CN(c2cc(O)c3nc4c5c6c7c(C)c(O)c5c(=O)c(c-4oc3c2)NC(=O)C(C)=CC=CC(C)C(O)C(C)C(O)C(C)C(O)C(C)C(OC)C=COC(C)(O7)C6=O)CC(C)N1 (stereo not drawn) [Compound 90] | 0.5 (≈ 0.565 µM) | 0.25 (≈ 0.282 µM) | 0.00012 (≈ 0.000136 µM) | 0.004 (≈ 0.00452 µM) | 4 (≈ 4.52 µM) |
| CCOc1c(N2CCN(CC)CC2)ccc2nc3c4c5c6c(C)c(O)c4c(=O)c(c-3oc12)NC(=O)C(C)=CC=CC(C)C(O)C(C)C(O)C(C)C(O)C(C)C(OC)C=COC(C)(O6)C5=O (stereo not drawn) [Compound 91] | 0.5 (≈ 0.556 µM) | 0.25 (≈ 0.278 µM) | 0.0005 (≈ 0.000556 µM) | 0.008 (≈ 0.0089 µM) | 8 (≈ 8.9 µM) |
| CCOc1c(N2CCN(CCOC)CC2)cc(N2CCN(CCOC)CC2)c2nc3c4c5c6c(C)c(O)c4c(=O)c(c-3oc12)NC(=O)C(C)=CC=CC(C)C(O)C(C)C(O)C(C)C(O)C(C)C(OC)C=COC(C)(O6)C5=O (stereo not drawn) [Compound 92] | 8 (≈ 7.47 µM) | 2 (≈ 1.87 µM) | 0.001 (≈ 0.000933 µM) | 0.12 (≈ 0.112 µM) | >8 |
| CCOc1c(N2CCN(CCOC)CC2)ccc2nc3c4c5c6c(C)c(O)c4c(=O)c(c-3oc12)NC(=O)C(C)=CC=CC(C)C(O)C(C)C(O)C(C)C(O)C(C)C(OC)C=COC(C)(O6)C5=O (stereo not drawn) [Compound 93] | 1 (≈ 1.08 µM) | 0.5 (≈ 0.538 µM) | 0.005 (≈ 0.00538 µM) | 0.015 (≈ 0.0161 µM) | >8 |
| COC1C=COC2(C)Oc3c(C)c(O)c4c(=O)c(c5n(C)c6cc(N7CC(C)NC(C)C7)ccc6nc-5c4c3C2=O)NC(=O)C(C)=CC=CC(C)C(O)C(C)C(O)C(C)C(O)C1C (stereo not drawn) [Compound 94] | >8 | 4 (≈ 4.61 µM) | 2 (≈ 2.3 µM) | 1 (≈ 1.15 µM) | >8 |
| COC1C=COC2(C)Oc3c(C)c(O)c4c(=O)c(c5oc6cc(N7CCN(C8CCN(C)CC8)CC7)cc(O)c6nc-5c4c3C2=O)NC(=O)C(C)=CC=CC(C)C(O)C(C)C(O)C(C)C(O)C1C (stereo not drawn) [Compound 95] | 0.5 (≈ 0.532 µM) | 1 (≈ 1.06 µM) | 0.002 (≈ 0.00213 µM) | 0.015 (≈ 0.016 µM) | >8 |
| COC1C=COC2(C)Oc3c(C)c(O)c4c(=O)c(c5oc6cc(N7CCN(CC8CC8)CC7)cc(O)c6nc-5c4c3C2=O)NC(=O)C(C)=CC=CC(C)C(O)C(C)C(O)C(C)C(O)C1C (stereo not drawn) [Compound 96] | 0.06 (≈ 0.0669 µM) | 0.25 (≈ 0.279 µM) | 0.0005 (≈ 0.000557 µM) | 0.008 (≈ 0.00892 µM) | 2 (≈ 2.23 µM) |
| COC1C=COC2(C)Oc3c(C)c(O)c4c(=O)c(c5oc6cc(N7CC(C)NCC7C)cc(O)c6nc-5c4c3C2=O)NC(=O)C(C)=CC=CC(C)C(O)C(C)C(O)C(C)C(O)C1C (stereo not drawn) [Compound 97] | 0.12 (≈ 0.138 µM) | 0.25 (≈ 0.287 µM) | 0.0005 (≈ 0.000574 µM) | 0.004 (≈ 0.00459 µM) | 4 (≈ 4.59 µM) |
| COC1C=COC2(C)Oc3c(C)c(O)c4c(=O)c(c5oc6cc(N7CCN(CCO)CC7)cc(O)c6nc-5c4c3C2=O)NC(=O)C(C)=CC=CC(C)C(O)C(C)C(O)C(C)C(O)C1C (stereo not drawn) [Compound 98] | 0.12 (≈ 0.135 µM) | 0.25 (≈ 0.282 µM) | 0.0005 (≈ 0.000564 µM) | 0.008 (≈ 0.00902 µM) | 8 (≈ 9.02 µM) |
| COC1C=COC2(C)Oc3c(C)c(O)c4c(=O)c(c5oc6cc(N7CCN(c8ccccc8)CC7)cc(O)c6nc-5c4c3C2=O)NC(=O)C(C)=CC=CC(C)C(O)C(C)C(O)C(C)C(O)C1C (stereo not drawn) [Compound 99] | 0.06 (≈ 0.0653 µM) | 0.25 (≈ 0.272 µM) | 0.001 (≈ 0.00109 µM) | 0.004 (≈ 0.00435 µM) | 4 (≈ 4.35 µM) |
